Where no end group is shown, it is not given here. [ ]: non-standard residue; d: D form.
What was measured:
mice = test: induction of Treg and Ti in mice by administered peptide; type: in vivo; settings: administered subcutaneously (so in the source)
CD4+ CD25− T cells = test: suppression of autologous CD4+ CD25− T cells by pCons-induced Treg; type: cell-based, human; settings: 1:1 ratios
Excerpt: T cells were also expanded and silencing of Foxp3 by transfection with specific siRNA for Foxp3 abrogated the suppressive capacity of the induced T reg by ½ (3rd panel, FIG. 8).
(§1) Next, we studied the ability of L-pCons to induce Treg in T cells from the peripheral blood of patients with SLE (36 patients, 32 healthy controls). Stimulatory control peptides B and D are wild peptides from human mAb anti-DNA; peptide A is a nonstimulatory negative control (see, e.g. Kaki et al., Lupus 2004; 13:490-500). […] These expanded cells were regulatory (FIG. 8): they suppressed proliferation and IFNg synthesis by autologous CD4+ CD25− cells in culture. Numbers of CD4+ Foxp3+ T cells were also expanded and silencing of Foxp3 by transfection with specific siRNA for Foxp3 abrogated the suppressive capacity of the induced T reg by ½ (3rd panel, FIG. 8). […] Patients who were anti-DNA negative were unlikely to respond to pCons with expansion of Treg (see, e.g. La Cava et al, Lupus. 2008; 17(5):421-5).

[1] = test system: peripheral blood mononuclear cells from patients with SLE; test: expansion of CD4+ CD25hi T cells in SLE patient cells cultured with peptide for 5 days; type: cell-based, human; settings: for expansion of CD4+ CD25hi (Foxp3+) regulatory T cell populations: SLE patient cells in culture, 5 days
Protocol: In these experiments, pCons and other stimulatory (peptides B and D) peptides and non-stimulatory peptides (peptide A) that are wild peptides from human monoclonal antibodies to DNA were incubated with peripheral blood mononuclear cells from patients with SLE.
In FIGS. 6 and 7, we show data on the ability of L-pCons to mature the CD4+ CD25hiFoxp3+ natural regulatory cells in patients with SLE. In these experiments, pCons and other stimulatory (peptides B and D) peptides and non-stimulatory peptides (peptide A) that are wild peptides from human monoclonal antibodies to DNA were incubated with peripheral blood mononuclear cells from patients with SLE. […] Such cells are thought to be regulatory T cells.
as §1

Sequence | induction of Treg and Ti (mice) | effect of peptide-induced Treg on CD4+ CD25− T cells (CD4+ CD25− T cells) | patients showing expansion of CD4+ CD25hi cells to more than the usual 2-3% of peripheral blood MNC ([1]; 5 days in culture) | expansion of CD4+ CD25hi (Foxp3+) regulatory T cell populations [1] | expansion of CD4+ CD25hi (Foxp3+) regulatory T cell populations ([1]; listed as pCons)
FIEWNKLRFRQGLEW ([dF][dI][dE][dW][dN][dK][dL][dR][dF][dR][dQ]G[dL][dE][dW]) [D-pCons] | induces Treg and Ti | – | – | – | –
FIEWNKLRFRQGLEW [L-pCons] | – | suppress proliferation and IFNg production | Thirteen of 23 | expand significantly | expanded CD4+ CD25hi populations in some patients
